# Results as given in patent US9155795B2, “CXCR4 receptor compounds” (Anchor Therapeutics, Inc., priority 2010, dated 2015).
# Where a SMILES comes first, the peptide text is derived from it. [ ]: non-standard residue; d: D form. The star is where a group is joined. 2Nal = N[C@@H](Cc1ccc2ccccc2c1)C(=O)O; Palmitoyl = CCCCCCCCCCCCCCCC(=O)*; Cit = NC(=O)NCCC[C@H](N)C(=O)O; Nle = CCCC[C@H](N)C(=O)O
# Target: T1, CXCR4 (Homo sapiens, UniProt P61073)
# T1 construct: CCRF-CEM cells, a human T-cell ALL line that endogenously expresses CXCR4; endogenous in cells; host or cells: CCRF-CEM (human T-cell acute lymphoblastic leukemia line)
# T1 sequence (P61073 whole entry): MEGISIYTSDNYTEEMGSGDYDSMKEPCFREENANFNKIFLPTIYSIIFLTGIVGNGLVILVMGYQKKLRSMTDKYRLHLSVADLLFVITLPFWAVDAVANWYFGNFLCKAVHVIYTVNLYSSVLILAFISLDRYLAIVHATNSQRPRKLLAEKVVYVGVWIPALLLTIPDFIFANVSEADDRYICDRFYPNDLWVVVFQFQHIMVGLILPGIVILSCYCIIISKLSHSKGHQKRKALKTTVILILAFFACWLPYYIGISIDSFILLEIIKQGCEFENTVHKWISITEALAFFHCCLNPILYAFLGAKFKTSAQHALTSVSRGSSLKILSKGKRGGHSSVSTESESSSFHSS
# Experiment: Calcium flux assay, agonist mode, Flexstation (CCRF-CEM cells)
# Type: cell-based
# Details: CCRF-CEM, percent of maximum response compared with SDF-1α, read-out: % Intrinsic Activity
# Text: Calcium Flux Assay is one of the most popular cell-based GPCR functional assays. It most often uses calcium sensing fluorescent dyes such as fura2 AM, fluo-4 and Calcium-4 to measure changes in intracellular calcium concentration. It is used mainly to detect GPCR signaling via Gαq subunit. Activation of these Gq-coupled GPCRs leads to activation of phospholipase C, which subsequently leads to increase in inositol phosphate production. IP3 receptors on endoplasmic reticulum sense the change then release calcium into cytoplasm. Intracellular calcium binding to the fluorescent dyes can be detected by instruments that quantify fluorescent intensities, such as FLIPR Tetra, Flexstation (MDS) and FDSS (Hamamatsu). In addition, to assess Gq-couple receptor signaling, a calcium flux assay can also be used to study Gs and Gi couple receptors by co-expressing CNG (cyclic nucleotide gated calcium channel) or chimeric G-proteins (Gqi5, Gsi5 for example). Activation of some Gi-coupled receptors can also be detected by calcium flux assay via Gβγ mediated phospholipase C activation.
# The calcium flux assay was used to assess the test compounds' ability to activate the CXCR4 receptor in CCRF-CEM cells (human T lymphoblasts from acute lymphoblastic leukemia). […] After dye loading by incubating with Calcium-4 dye at 37° C. for 1 hour, cell plates were read at 37° C. using the using the Flexstation 3 workstation. Receptor activation was assessed by measuring changes in fluorescent intensity after the addition of the test compounds or the reference agonist SDF-1α on the using the Flexstation 3 workstation. EC50
# and percent intrinsic actively were derived from the data collected. Intrinsic activity refers to the efficacy of the test compound and is calculated as the percent of maximum response compared with the response of the reference standard (i.e., natural agonist, SDF-1α).
row,SMILES,Emax [%]
1,CCCCCCCCCCCCCCCC(=O)N[C@@H](CCSC)C(=O)NCC(=O)N[C@@H](Cc1ccc(O)cc1)C(=O)N[C@@H](CCC(N)=O)C(=O)N[C@@H](CCCCN)C(=O)N1CCC[C@H]1C(=O)N[C@@H](CC(C)C)C(=O)N[C@@H](CCCNC(=N)N)C(=O)N[C@@H](CO)C(=O)N[C@@H](CCSC)C(=O)N[C@H](C(=O)N[C@@H](CC(=O)O)C(=O)N[C@@H](CCCCN)C(=O)N[C@@H](Cc1ccc(O)cc1)C(=O)N[C@@H](CCCNC(=N)N)C(=O)N[C@@H](CC(C)C)C(N)=O)[C@@H](C)O [Compound 6] (Palmitoyl-MGYQKPLRSMTDKYRL-NH2; C-terminus assumed),90.2
2,CCCCCCCCCCCCCCCC(=O)N[C@@H](CCSC)C(=O)NCC(=O)N[C@@H](Cc1ccc(O)cc1)C(=O)N[C@@H](CCC(N)=O)C(=O)N[C@@H](CCCCN)C(=O)N[C@@H](CCCCN)C(=O)N[C@@H](CC(C)C)C(=O)N1CCC[C@H]1C(=O)N[C@@H](CCCNC(=N)N)C(=O)N[C@@H](CO)C(=O)N[C@@H](CCSC)C(=O)N[C@H](C(=O)N[C@@H](CC(=O)O)C(=O)N[C@@H](CCCCN)C(=O)N[C@@H](Cc1ccc(O)cc1)C(=O)N[C@@H](CCCNC(=N)N)C(=O)N[C@@H](CC(C)C)C(N)=O)[C@@H](C)O [Compound 7] (Palmitoyl-MGYQKKLPRSMTDKYRL-NH2; C-terminus assumed),100
3,CCCCCCCCCCCCCCCC(=O)N[C@@H](CCSC)C(=O)NCC(=O)N[C@@H](Cc1ccc(O)cc1)C(=O)N[C@@H](CCC(N)=O)C(=O)N[C@@H](CCCCN)C(=O)N[C@@H](CCCCN)C(=O)N[C@@H](CC(C)C)C(=O)N[C@@H](CCCNC(=N)N)C(=O)N1CCC[C@H]1C(=O)N[C@@H](CO)C(=O)N[C@@H](CCSC)C(=O)N[C@H](C(=O)N[C@@H](CC(=O)O)C(=O)N[C@@H](CCCCN)C(=O)N[C@@H](Cc1ccc(O)cc1)C(=O)N[C@@H](CCCNC(=N)N)C(=O)N[C@@H](CC(C)C)C(N)=O)[C@@H](C)O [Compound 8] (Palmitoyl-MGYQKKLRPSMTDKYRL-NH2; C-terminus assumed),88
4,CCCCCCCCCCCCCCCC(=O)N[C@@H](CCSC)C(=O)NCC(=O)N[C@@H](Cc1ccc(O)cc1)C(=O)N[C@@H](CCC(N)=O)C(=O)N[C@@H](CCCCN)C(=O)N[C@@H](CCCCN)C(=O)N[C@@H](CC(C)C)C(=O)N[C@@H](CCCNC(=N)N)C(=O)N[C@@H](CO)C(=O)N1CCC[C@@H]1C(=O)N[C@@H](CCSC)C(=O)N[C@H](C(=O)N[C@@H](CC(=O)O)C(=O)N[C@@H](CCCCN)C(=O)N[C@@H](Cc1ccc(O)cc1)C(=O)N[C@@H](CCCNC(=N)N)C(=O)N[C@@H](CC(C)C)C(N)=O)[C@@H](C)O [Compound 9] (Palmitoyl-MGYQKKLRS[dP]MTDKYRL-NH2; C-terminus assumed),77.9
5,CCCCCCCCCCCCCCCC(=O)N[C@@H](CCSC)C(=O)NCC(=O)N[C@@H](Cc1ccc(O)cc1)C(=O)N[C@@H](CCC(N)=O)C(=O)N[C@@H](CCCCN)C(=O)N[C@@H](CCCCN)C(=O)N[C@@H](CC(C)C)C(=O)N[C@@H](CCCNC(=N)N)C(=O)N[C@@H](CO)C(=O)N[C@@H](CCSC)C(=O)N[C@H](C(=O)N[C@@H](CC(=O)O)C(=O)N[C@@H](CCCCN)C(=O)N[C@@H](Cc1ccc(O)cc1)C(=O)N[C@@H](CCCNC(=N)N)C(=O)N[C@H](C(N)=O)C(C)C)[C@@H](C)O [Compound 11] (Palmitoyl-MGYQKKLRSMTDKYRV-NH2; C-terminus assumed),61.7
6,CCCCCCCCCCCCCCCC(=O)N[C@@H](CCSC)C(=O)NCC(=O)N[C@@H](Cc1ccc(O)cc1)C(=O)N[C@@H](CCC(N)=O)C(=O)N[C@@H](CCCCN)C(=O)N[C@@H](CCCCN)C(=O)N[C@@H](CC(C)C)C(=O)N[C@@H](CCCNC(=N)N)C(=O)N[C@@H](CO)C(=O)N[C@@H](CCSC)C(=O)N[C@H](C(=O)N[C@@H](CC(=O)O)C(=O)N[C@@H](CCCCN)C(=O)N[C@@H](Cc1ccc(O)cc1)C(=O)N[C@@H](CCCNC(=N)N)C(=O)N[C@@H](CCCC)C(N)=O)[C@@H](C)O [Compound 12] (Palmitoyl-MGYQKKLRSMTDKYR[Nle]-NH2; C-terminus assumed),73.2
7,CCCCCCCCCCCCCCCC(=O)N[C@@H](CCSC)C(=O)NCC(=O)N[C@@H](Cc1ccc(O)cc1)C(=O)N[C@@H](CCC(N)=O)C(=O)N[C@@H](CCCCN)C(=O)N[C@@H](CCCCN)C(=O)N[C@@H](CC(C)C)C(=O)N[C@@H](CCCNC(=N)N)C(=O)N[C@@H](CO)C(=O)N[C@@H](CCSC)C(=O)N[C@H](C(=O)N[C@@H](CC(=O)O)C(=O)N[C@@H](CCCCN)C(=O)N[C@@H](Cc1ccc(O)cc1)C(=O)N[C@@H](CCCCN)C(=O)N[C@@H](CC(C)C)C(N)=O)[C@@H](C)O [Compound 13] (Palmitoyl-MGYQKKLRSMTDKYKL-NH2; C-terminus assumed),61.4
8,CCCCCCCCCCCCCCCC(=O)N[C@@H](CCSC)C(=O)NCC(=O)N[C@@H](Cc1ccc(O)cc1)C(=O)N[C@@H](CCC(N)=O)C(=O)N[C@@H](CCCCN)C(=O)N[C@@H](CCCCN)C(=O)N[C@@H](CC(C)C)C(=O)N[C@@H](CCCNC(=N)N)C(=O)N[C@@H](CO)C(=O)N[C@@H](CCSC)C(=O)N[C@H](C(=O)N[C@@H](CC(=O)O)C(=O)N[C@@H](CCCCN)C(=O)N[C@@H](Cc1ccc(O)cc1)C(=O)N[C@@H](CCCNC(N)=O)C(=O)N[C@@H](CC(C)C)C(N)=O)[C@@H](C)O [Compound 14] (Palmitoyl-MGYQKKLRSMTDKY[Cit]L-NH2),3.61
9,CCCCCCCCCCCCCCCC(=O)N[C@@H](CCSC)C(=O)NCC(=O)N[C@@H](Cc1ccc(O)cc1)C(=O)N[C@@H](CCC(N)=O)C(=O)N[C@@H](CCCCN)C(=O)N[C@@H](CCCCN)C(=O)N[C@@H](CC(C)C)C(=O)N[C@@H](CCCNC(=N)N)C(=O)N[C@@H](CO)C(=O)N[C@@H](CCSC)C(=O)N[C@H](C(=O)N[C@@H](CC(=O)O)C(=O)N[C@@H](CCCCN)C(=O)N[C@@H](Cc1ccccc1)C(=O)N[C@@H](CCCNC(=N)N)C(=O)N[C@@H](CC(C)C)C(N)=O)[C@@H](C)O [Compound 15] (Palmitoyl-MGYQKKLRSMTDKFRL-NH2; C-terminus assumed),81.5
10,CCCCCCCCCCCCCCCC(=O)N[C@@H](CCSC)C(=O)NCC(=O)N[C@@H](Cc1ccc(O)cc1)C(=O)N[C@@H](CCC(N)=O)C(=O)N[C@@H](CCCCN)C(=O)N[C@@H](CCCCN)C(=O)N[C@@H](CC(C)C)C(=O)N[C@@H](CCCNC(=N)N)C(=O)N[C@@H](CO)C(=O)N[C@@H](CCSC)C(=O)N[C@H](C(=O)N[C@@H](CC(=O)O)C(=O)N[C@@H](CCCCN)C(=O)N[C@@H](Cc1ccc2ccccc2c1)C(=O)N[C@@H](CCCNC(=N)N)C(=O)N[C@@H](CC(C)C)C(N)=O)[C@@H](C)O [Compound 16] (Palmitoyl-MGYQKKLRSMTDK[2Nal]RL-NH2; C-terminus assumed),34.4
11,CCCCCCCCCCCCCCCC(=O)N[C@@H](CCSC)C(=O)NCC(=O)N[C@@H](Cc1ccc(O)cc1)C(=O)N[C@@H](CCC(N)=O)C(=O)N[C@@H](CCCCN)C(=O)N[C@@H](CCCCN)C(=O)N[C@@H](CC(C)C)C(=O)N[C@@H](CCCNC(=N)N)C(=O)N[C@@H](CO)C(=O)N[C@@H](CCCC)C(=O)N[C@H](C(=O)N[C@@H](CC(=O)O)C(=O)N[C@@H](CCCCN)C(=O)N[C@@H](Cc1ccc(O)cc1)C(=O)N[C@@H](CCCNC(=N)N)C(=O)N[C@@H](CC(C)C)C(N)=O)[C@@H](C)O [Compound 17] (Palmitoyl-MGYQKKLRS[Nle]TDKYRL-NH2; C-terminus assumed),62.7
12,CCCCCCCCCCCCCCCC(=O)N[C@@H](CCSC)C(=O)NCC(=O)N[C@@H](Cc1ccc(O)cc1)C(=O)N[C@@H](CCC(N)=O)C(=O)N[C@@H](CCCCN)C(=O)N[C@@H](CCCCN)C(=O)N[C@@H](CC(C)C)C(=O)N[C@@H](CCCNC(=N)N)C(=O)N[C@@H](CO)C(=O)N[C@@H](Cc1c[nH]cn1)C(=O)N[C@H](C(=O)N[C@@H](CC(=O)O)C(=O)N[C@@H](CCCCN)C(=O)N[C@@H](Cc1ccc(O)cc1)C(=O)N[C@@H](CCCNC(=N)N)C(=O)N[C@@H](CC(C)C)C(N)=O)[C@@H](C)O [Compound 18] (Palmitoyl-MGYQKKLRSHTDKYRL-NH2; C-terminus assumed),93.4
13,CCCCCCCCCCCCCCCC(=O)N[C@@H](CCSC)C(=O)NCC(=O)N[C@@H](Cc1ccc(O)cc1)C(=O)N[C@@H](CCC(N)=O)C(=O)N[C@@H](CCCCN)C(=O)N[C@@H](CCCCN)C(=O)N[C@@H](CC(C)C)C(=O)N[C@@H](CCCNC(=N)N)C(=O)N[C@@H](CO)C(=O)NCC(=O)N[C@H](C(=O)N[C@@H](CC(=O)O)C(=O)N[C@@H](CCCCN)C(=O)N[C@@H](Cc1ccc(O)cc1)C(=O)N[C@@H](CCCNC(=N)N)C(=O)N[C@@H](CC(C)C)C(N)=O)[C@@H](C)O [Compound 19] (Palmitoyl-MGYQKKLRSGTDKYRL-NH2; C-terminus assumed),101
14,CCCCCCCCCCCCCCCC(=O)NCC(=O)N[C@@H](Cc1ccc(O)cc1)C(=O)N[C@@H](CCC(N)=O)C(=O)N[C@@H](CCCCN)C(=O)N[C@@H](CCCCN)C(=O)N[C@@H](CC(C)C)C(=O)N[C@@H](CCCNC(=N)N)C(=O)N[C@@H](CO)C(=O)N[C@@H](CCCC)C(=O)N[C@H](C(=O)N[C@@H](CC(=O)O)C(=O)N[C@@H](CCCCN)C(=O)N[C@@H](Cc1ccc(O)cc1)C(=O)N[C@@H](CCCNC(=N)N)C(=O)N[C@H](C(N)=O)[C@@H](C)CC)[C@@H](C)O [Compound 20] (Palmitoyl-GYQKKLRS[Nle]TDKYRI-NH2; C-terminus assumed),62.5
